Data: patent publication US20120301478A1, “Pharmaceutical for Preventing or Treating Disorders Accompanied by Ocular Angiogenesis and/or Elevated Ocular Vascular Permeability” (priority 2010, published 2012)

Legend:
[1] = system: choroidal neovascularization (CNV) model; assay: Laser-induced choroidal neovascularization (CNV) mouse model, CNV volume (Experiment 1); assay type: in vivo, mouse (male C57BL/6J)
Source text: In the CNV model, macrophages migrate by the initiation of an inflammation by laser irradiation. Since VEGF are produced, neovascular vessels are generated, and increased vascular permeability is observed as the result thereof, the CNV model is one of models that produce VEGF. […] The both eyes of a male C57BL/6J mice having a body weight of about 20 g (6-week old) were irradiated with laser (irradiated by 4 to 6 spots per one eye) to induce CNV experimentally. As mentioned below, an anti-VEGF antibody and/or fidarestat were administered as a drug. […] As the anti-VEGF antibody, an anti-mouse VEGF antibody purchased from R&D Systems was used. The number of examples was three or four per a group, and the following four groups were set. […] After completion of the laser irradiation, the mice were bred by general breeding for 7 days, and thereafter the eye balls were excised and the volume of CNV appeared in the choroid was measured. […] The volume of CNV was measured by importing an image in the vicinity of CNV by a confocal laser microscope (Zeiss LSM5 Pascal) and using image analysis software (NIH Image J). […]

STZ-diabetic rat retina = conditions: streptozotocin (STZ)-diabetic rat, cited from earlier work
[2] = system: choroidal neovascularization (CNV) model, increased vascular permeability; assay: Laser-induced CNV mouse model, fluorescein-fluorescent fundus angiography, vascular permeability (Experiment 2); assay type: in vivo; conditions: fidarestat forced oral 16 mg/kg twice a day (32 mg/kg/day); 7 days after laser irradiation
Description: An anti-VEGF antibody and/or fidarestat were administered to a mouse that had been treated to induce CNV in a similar manner to that in Experiment 1. […] The number of examples was three or four per a group, and the following five groups were set. […] The both eyes were photographed by an eye-fundus camera, and the obtained eye-ground picture was evaluated in a blinded manner according to the following criteria. • grade 0: nonleaky, no leakage from blood-vessel • grade 1: questionable leakage, weak leakage was observed • grade 2: leaky, leakage was observed • grade 3: pathologically significant leakage, clear leakage was observed on wide area The ratio of the number of the FA grade 3 lesions (%) in each eye was calculated, and the average value of the calculated rates in each group was obtained. […]

[3] = injected in the vitreous body of a human; cited from earlier work

Row | Molecule | dose at which the maximum medicinal effect is shown ([1]; CNV mouse model, fidarestat) [mg/kg/day] | effect of suppressing CNV (CNV volume) compared to the untreated group ([1]; fidarestat 32 mg/kg/day in powder feedstuff, from 2 days before to 7 days after laser irradiation) | overexpression of VEGF (STZ-diabetic rat retina; retina) | retinal oxidative stress (STZ-diabetic rat retina) | ratio of the number of the FA grade 3 lesions [2] | disappearing half-life [3] [h]
1 | NC(=O)[C@@H]1C[C@]2(NC(=O)NC2=O)c2cc(F)ccc2O1 [fidarestat, (2S,4S)-6-fluoro-2′,5′-dioxospiro[chroman-4,4′-imidazolidine]-2-carboxamide] | 32 | significant effect of suppressing CNV was observed (p<0.05) | suppresses | suppresses | approximately the same rate as that in the 2 ng anti-VEGF antibody-administered group | –
2 | ranibizumab: typical anti-VEGF agent, anti-VEGF antibody used as intravitreal injection | – | – | – | – | – | 220
